Source: patent US10596165B2, “Combination therapies” (resTORbio, Inc., priority 2018, dated 2020)

Key:
R6/2 brain slices [1] = experiment: Striatal degeneration: DARPP-32 intensity and neurofilament levels in R6/2 slice cultures; format: cell-based, mouse; details: single low-concentrations (everolimus 250 nM; RTB101 50 nM), DIV21
Method: (§1) Slice cultures were established according to described procedures. (L. Stoppini et al., J. Neurosci. Methods 37(2): 173-82 (1991) and N. Gogolla et al., Nat. Protoc. 1(3): 1165-71 (2006)). A particular cutting angle was utilized to produce brain slices with a preserved cortico-striatal pathway. Finally, slices were selected, placed on Millicel (Millipore, PICM03050) and cultured in 6-well dishes at 35° C. and 5% CO2 in the presence of 1 ml of culture medium.
(§2) Slices were treated with different mTOR inhibitors from DIV14 to DIV21. The culture medium was exchanged every second day, and drugs were added in the fresh culture medium. We used this protocol to evaluate the action of the following mTOR inhibitors: RTB101 (50 and 300 nM in DMSO), everolimus (250 nM in DMSO), CCG168 (300 nM in DMSO), and everolimus+RTB101 (250 and 10, 250and 30 and 250 and 50 nM in DMSO). […]
(§3) High resolution images were acquired on an upright Zeiss LSM700 confocal microscope, using a Plan-Neofluar 40x/1.3 oil immersion objective. For the quantification of the PolyQ density and DARPP-32/NeuF signal intensity, at least three confocal 3D stacks/slice were acquired in striatum for each experiment (five slices per condition), and analyzed using Imaris 4.2 (BitplaneAG) and Image J softwares. All data are expressed as mean±SEM. […]

R6/2 brain slices [2] = experiment: polyQ density (immunohistochemical detection of PolyQ inclusions) in R6/2 corticostriatal slice cultures; format: cell-based, mouse; details: DIV14 to DIV21, read at DIV21, vs DMSO treated R6/2 slices
Method: as §1, §2, §3

SMILES	DARPP-32 level (R6/2 brain slices [1])	neurofilament level (R6/2 brain slices [1])	polyQ density (R6/2 brain slices [2]; 250 nM everolimus single treatment)	polyQ density (R6/2 brain slices [2]; 50 nM RTB101 single treatment)
CO[C@H]1C[C@@H]2CC[C@@H](C)[C@@](O)(O2)C(=O)C(=O)N2CCCC[C@H]2C(=O)O[C@H]([C@H](C)C[C@@H]2CC[C@@H](OCCO)[C@H](OC)C2)CC(=O)[C@H](C)/C=C(\C)[C@@H](O)[C@@H](OC)C(=O)[C@H](C)C[C@H](C)/C=C/C=C/C=C/1C [everolimus, (1R,9S,12S,15R,16E,18R,19R,21R,23S,24E,26E,28E,30S,32S,35R)-1,18-dihydroxy-12-{(1R)-2-[(1S,3R,4R)-4-(2-hydroxyethoxy)-3-methoxycyclohexyl]-1-methylethyl}-19,30-dimethoxy-15,17,21,23,29,35-hexamethyl-11,36-dioxa-4-aza-tricyclo[30.3.1.04,9]hexatriaconta-16,24,26,28-tetraene-2,3,10,14,20-pentaone]	ineffective	ineffective	no effect	–
Cn1c(=O)n(-c2ccc(C(C)(C)C#N)cc2)c2c3cc(-c4cnc5ccccc5c4)ccc3ncc21 [RTB101, 2-methyl-2-[4-(3-methyl-2-oxo-8-quinolin-3-yl-2,3-dihydro-imidazo[4,5-c]quinolin-1-yl)-phenyl]-propionitrile]	–	–	–	no effect
